The text below walks through data of US20230057984A1, “NORMALIZATION OF CULTURE OF CORNEAL ENDOTHELIAL CELLS” (KYOTO PREFECTURAL PUBLIC UNIVERSITY CORPORATION, priority 2011, published 2023).

Assay type in all cases: cell-based
Assay [1] concerns Cynomolgus monkey corneal endothelial cells. Put plainly: Immunostaining of Na+/K+-ATPase and ZO-1 in monkey corneal endothelial cells (Example 3). The note with it: monkey CEC treated with SB431542; control lost its staining. The procedure:
Phosphatase inhibitor cocktail 2 (Sigma-Aldrich) and protease inhibitor cocktail (Nacalai Tesque, Inc., Kyoto city) were added to the aforementioned RIPA buffer. The obtained cell lysate was centrifuged (15,000 rpm, 10 minutes) where the supernatant thereof was collected, and the protein was quantitated using a BCA PROTEIN ASSAY KIT (PIERCE (catalog number: 23227)). Dissolution was performed using 100 μl dissolution buffer (Laemmli sample buffer) including 5 mM 2-mercaptoethanol (Nacalai Tesque (catalog number: 21418-42)). • Immunostaining: after washing cells which had reached confluency with PBS (Nissui, catalog number: 5913), the cells were fixed for 10 minutes with iced ethanol (Nacalai Tesque, catalog number: 14713-95) and acetic acid (WAKO catalog number:017-00256) (95:5).
Blocking was performed via incubation for 1 hour with 0.1% (vol/vol) polyethylene sorbitan monolaurate (Nacalai Tesque, catalog number: 28353-85) (TBS-T) and Tris buffered saline (10 mM Tris-HCl, pH7.4; 100 mM NaCl) with 10% fetal bovine serum. […]
Next, reaction was allowed for 1 hour at a room temperature with ALEXA FLUOR 488 (INVITROGEN (catalog number: A21206)) and ALEXA FLUOR 594 (INVITROGEN (catalog number: A21203)), diluted with TBS-T by 1,000 fold. […] After washing, bands were detected using an ECL-ADVAVCE Western Blotting Detection Kit (GE healthcare Japan (catalog number: RPN2135V)). […]

Assay [2] concerns Human corneal endothelial cells. In words: Quantitative PCR of collagen type 1 and fibronectin in HCEC. The note with it: SB431542 1 μM, normalized with GAPDH, relative to control. The procedure: Amplified DNA fragments were electrophoresed with 1.5% agarose gel (Nacalai Tesque, catalog number:01149-76), and detected by staining with ethidium bromide (Nacalai Tesque, catalog number: 14603-51). • Quantitative PCR was performed using the following TaqMan (registered trademark) (Invitrogen) primers. collagen type 1: Hs00164004_m1; fibronectin: Hs01549976_m1; GAPDH: Hs00266705_g1. The PCR was performed using a StepOne™ (Applied Biosystems) real-time PCR system. The GAPDH was used as an internal standard.

For assay [3] the test system is unchanged. In words: ELISA of type 1 collagen in culture supernatant of HCEC. The note with it: HCEC with vs without SB431542, n=5, P<0.05. The method, then:
Corneal endothelial cells were mechanically exfoliated together with basement membranes from research corneas purchased from the Seattle bank, followed by exfoliating from the basement membranes using collagenase for collection, and then primary culturing. […] The collected human corneal endothelial cells were divided into two, and one group of them was cultured with the base culture medium as a control, and the other group of them was cultured with a base culture medium with SB431542 (TOCRIS, catalog number: 1614) added thereto such that the final concentration would be 1 μmol/L. • Enzyme-linked immunosorbent assay (ELISA): type 1 collagen in a culture supernatant of HCEC was assayed by using a ELISA kits for Collagen Type I Alpha 2 (COL1a2) (Uscn Life Science Inc., Wuhan, China) in accordance with the instruction manual of the manufacturer. Culture supernatants derived from HCEC, cultured together with SB431542 or without SB431542, were used for respective groups (n=5).

Regarding `NC(=O)c1ccc(-c2nc(-c3ccc4c(c3)OCO4)c(-c3ccccn3)[nH]2)cc1` [SB431542], in assay [1], the “plasma membrane staining of Na+/K+-ATPase and ZO-1 (immunostaining)” value is “characteristic plasma membrane staining of Na^+/K^+-ATPase and ZO-1”. Moreover, in assay [2], the “expression of collagen type 1 at mRNA level (quantitative PCR)” value was “significantly decreased” and the “expression of fibronectin at mRNA level (quantitative PCR)” value is given as “significantly decreased”. For the same compound, in assay [3], the “secretion of collagen type 1 to the cell supernatant (ELISA)” value is “significantly down-regulated”.
